Source: US11325938B2, “CD73 inhibitors” (ORIC Pharmaceuticals, Inc., priority 2018, dated 2022)

Target: CD73 (Homo sapiens (Human), UniProt P21589)
Assay: Biochemical assay: inhibition of CD73 activity (AMP hydrolysis, Malachite Green readout)
Details: CD73 0.3208 nM, AMP 15 μM, 25 mM Tris-HCl pH 7.4, RT, absorbance 620 nm
Experimental: Example A1: Biochemical Assay
Assay Reaction Conditions
• Assay Volume: 70 μl • Reaction Volume: 50 μl • CD73: 0.3208 nM • AMP: 15 μM • Assay Buffer: 25 mM Tris-HCL, pH 7.4, 0.01% Brij-35, 0.01% BSA, 5 mM MgCl2 Assay Procedure:
Made dose titration of testing compounds in assay buffer, 10 points ½ log titrations in duplicates starting at 100 μM.
Added 25 μl of CD73 to each well for a final concentration of 320 pM.
Incubated at RT for 15 min.
Added 25 μl of AMP to each well for a final concentration of 15 μM.
Incubated at RT for 10 min.
Added 10 μl of Malachite Green Reagent A, incubate at RT for 10 min.
Added 10 of Malachite Green Reagent B, incubate at RT for 45 min.
Read the Absorbance on Envision plate reader using excitation filter: Cy5 […].
The ability of the compounds disclosed herein to inhibit CD73 activity was quantified and the respective IC50 values were determined. Table 2 provides the biochemical IC50 values of compounds disclosed herein.

CD73, sequence (P21589 27-574): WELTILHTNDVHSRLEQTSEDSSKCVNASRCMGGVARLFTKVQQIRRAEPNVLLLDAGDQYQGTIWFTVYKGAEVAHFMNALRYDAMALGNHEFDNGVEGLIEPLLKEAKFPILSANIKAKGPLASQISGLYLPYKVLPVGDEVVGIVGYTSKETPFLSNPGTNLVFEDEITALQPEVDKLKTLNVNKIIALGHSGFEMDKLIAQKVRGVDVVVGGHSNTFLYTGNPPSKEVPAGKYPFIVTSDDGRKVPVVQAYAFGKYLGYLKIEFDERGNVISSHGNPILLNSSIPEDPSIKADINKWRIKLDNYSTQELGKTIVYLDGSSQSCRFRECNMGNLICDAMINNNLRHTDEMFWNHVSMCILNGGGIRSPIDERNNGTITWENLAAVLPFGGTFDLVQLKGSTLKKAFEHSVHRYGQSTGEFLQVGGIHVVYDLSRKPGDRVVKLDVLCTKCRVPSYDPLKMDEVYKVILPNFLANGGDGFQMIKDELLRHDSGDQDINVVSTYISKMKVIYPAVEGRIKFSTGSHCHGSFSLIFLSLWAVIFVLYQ

Row | SMILES | IC50
1 | C[C@@](CO)(OC[C@H]1O[C@@H](n2ncc3c(NC4CCCC4)nc(OCCO)nc32)[C@H](O)[C@@H]1O)P(=O)(O)O [Example 134, ((R)-2-(((2R,3S,4R,5R)-5-(4-(cyclopentylamino)-6-(2-hydroxyethoxy)-1H-pyrazolo[3,4-d]pyrimidin-1-yl)-3,4-dihydroxytetrahydrofuran-2-yl)methoxy)-1-hydroxypropan-2-yl)phosphonic acid] | ≤ 100 nM
2 | CC(CO)(OC[C@H]1O[C@@H](n2ncc3c(N[C@H]4CCC45CCC5)nc(Cl)nc32)[C@H](O)[C@@H]1O)P(=O)(O)O (stereo partly drawn) [Example 136, (2-(((2R,3S,4R,5R)-5-(6-chloro-4-(((S)-spiro[3.3]heptan-1-yl)amino)-1H-pyrazolo[3,4-d]pyrimidin-1-yl)-3,4-dihydroxytetrahydrofuran-2-yl)methoxy)-1-hydroxypropan-2-yl)phosphonic acid] | ≤ 100 nM
3 | C[C@](CO)(OC[C@H]1O[C@@H](n2ncc3c(N[C@@H]4CC[C@H]5CCC[C@H]54)nc(Cl)nc32)[C@H](O)[C@@H]1O)P(=O)(O)O (racemic) [Example 173, rac-((R)-2-(((2S,3R,4S,5S)-5-(6-chloro-4-(((1S,3aS,6aS)-octahydropentalen-1-yl)amino)-1H-pyrazolo[3,4-d]pyrimidin-1-yl)-3,4-dihydroxytetrahydrofuran-2-yl)methoxy)-1-hydroxypropan-2-yl)phosphonic acid] | ≤ 100 nM
4 | O=P(O)(O)[C@@](CO)(Cc1nn[nH]n1)OC[C@H]1O[C@@H](n2ncc3c(NC4CCCC4)nc(CO)nc32)[C@H](O)[C@@H]1O (racemic) [Example 218, rac-((R)-2-(((2R,3S,4R,5R)-5-(4-(cyclopentylamino)-6-(hydroxymethyl)-1H-pyrazolo[3,4-d]pyrimidin-1-yl)-3,4-dihydroxytetrahydrofuran-2-yl)methoxy)-1-hydroxy-3-(2H-tetrazol-5-yl)propan-2-yl)phosphonic acid] | ≤ 100 nM
5 | COCC(OC[C@H]1O[C@@H](n2ncc3c(NC4CCCC4)nc(Cl)nc32)[C@H](O)[C@@H]1O)P(=O)(O)O (stereo partly drawn) [Example 31, (1-(((2R,3S,4R,5R)-5-(6-chloro-4-(cyclopentylamino)-1H-pyrazolo[3,4-d]pyrimidin-1-yl)-3,4-dihydroxytetrahydrofuran-2-yl)methoxy)-2-methoxyethyl)phosphonic acid] | ≤ 100 nM
6 | C[C@H](P(=O)(O)O)S(=O)(=O)C[C@H]1O[C@@H](n2ncc3c(NC4CCCC4)nc(Cl)nc32)[C@H](O)[C@@H]1O [Example 7, ((R)-1-((((2S,3S,4R,5R)-5-(6-Chloro-4-(cyclopentylamino)-1H-pyrazolo[3,4-d]pyrimidin-1-yl)-3,4-dihydroxytetrahydrofuran-2-yl)methyl)sulfonyl)ethyl)phosphonic acid] | ≤ 100 nM
7 | O=P(O)(O)C(CO)(CCO)OC[C@H]1O[C@@H](n2ncc3c(NC4CCCC4)nc(Cl)nc32)[C@H](O)[C@@H]1O (stereo partly drawn) [Example 36, (2-(((2R,3S,4R,5R)-5-(6-chloro-4-(cyclopentylamino)-1H-pyrazolo[3,4-d]pyrimidin-1-yl)-3,4-dihydroxytetrahydrofuran-2-yl)methoxy)-1,4-dihydroxybutan-2-yl)phosphonic acid] | ≤ 100 nM
8 | O=P(O)(O)C(CCO)S(=O)(=O)C[C@H]1O[C@@H](n2ncc3c(NC4CCCC4)nc(Cl)nc32)[C@H](O)[C@@H]1O (stereo partly drawn) [Example 34, (1-((((2S,3S,4R,5R)-5-(6-chloro-4-(cyclopentylamino)-1H-pyrazolo[3,4-d]pyrimidin-1-yl)-3,4-dihydroxytetrahydrofuran-2-yl)methyl)sulfonyl)-3-hydroxypropyl)phosphonic acid] | 100 to 1000 nM
9 | O=P(O)(O)[C@](CO)(Cc1ncco1)OC[C@H]1O[C@@H](n2ncc3c(NC4CCCC4)nc(Cl)nc32)[C@H](O)[C@@H]1O [Example 92, ((S)-2-(((2R,3S,4R,5R)-5-(6-chloro-4-(cyclopentylamino)-1H-pyrazolo[3,4-d]pyrimidin-1-yl)-3,4-dihydroxytetrahydrofuran-2-yl)methoxy)-1-hydroxy-3-(oxazol-2-yl)propan-2-yl)phosphonic acid] | ≤ 100 nM
10 | O=P(O)(O)[C@@](CO)(Cc1nn[nH]n1)OC[C@H]1O[C@@H](n2ncc3c(NC4CCC4)nc(Cl)nc32)[C@H](O)[C@@H]1O (racemic) [Example 213, rac-((R)-2-(((2R,3S,4R,5R)-5-(6-chloro-4-(cyclobutylamino)-1H-pyrazolo[3,4-d]pyrimidin-1-yl)-3,4-dihydroxytetrahydrofuran-2-yl)methoxy)-1-hydroxy-3-(2H-tetrazol-5-yl)propan-2-yl)phosphonic acid] | ≤ 100 nM
11 | COC[C@@H](OC[C@H]1O[C@@H](n2ncc3c(NC4CCCC4)nc(Cl)nc32)[C@H](O)[C@@H]1O)P(=O)(O)O [Example 64, ((S)-1-(((2R,3S,4R,5R)-5-(6-chloro-4-(cyclopentylamino)-1H-pyrazolo[3,4-d]pyrimidin-1-yl)-3,4-dihydroxytetrahydrofuran-2-yl)methoxy)-2-methoxyethyl)phosphonic acid] | ≤ 100 nM
12 | O=P(O)(O)C(COCCO)OC[C@H]1O[C@@H](n2ncc3c(NC4CCCC4)nc(Cl)nc32)[C@H](O)[C@@H]1O (mixture of isomers) [Example 166, rac-(1-(((2R,3S,4R,5R)-5-(6-chloro-4-(cyclopentyalmino)-1H-pyrazolo[3,4-d]pyrimidin-1-yl)-3,4-dihydroxytetrahydrofuran-2-yl)methoxy)-2-(2-hydroxyethoxy)ethyl)phosphonic acid] | ≤ 100 nM
13 | O=P(O)(O)C(CO)(CO)OC[C@H]1O[C@@H](n2ncc3c(NCC4CC4)nc(Cl)nc32)[C@H](O)[C@@H]1O [Example 132, (2-(((2R,3S,4R,5R)-5-(6-chloro-4-((cyclopropylmethyl)amino)-1H-pyrazolo[3,4-d]pyrimidin-1-yl)-3,4-dihydroxytetrahydrofuran-2-yl)methoxy)-1,3-dihydroxypropan-2-yl)phosphonic acid] | ≤ 100 nM
14 | C[C@](CO)(OC[C@H]1O[C@@H](n2nnc3c(NC4CCCC4)cc(Cl)nc32)[C@H](O)[C@@H]1O)P(=O)(O)O [Example 140, ((S)-2-(((2R,3S,4R,5R)-5-(5-chloro-7-(cyclopentylamino)-3H-[1,2,3]triazolo[4,5-b]pyridin-3-yl)-3,4-dihydroxytetrahydrofuran-2-yl)methoxy)-1-hydroxypropan-2-yl)phosphonic acid] | ≤ 100 nM
15 | COC[C@](C)(OC[C@H]1O[C@@H](n2ncc3c(NCC4CC4)nc(Cl)nc32)[C@H](O)[C@@H]1O)P(=O)(O)O [Example 131, ((R)-2-(((2R,3S,4R,5R)-5-(6-chloro-4-((cyclopropylmethyl)amino)-1H-pyrazolo[3,4-d]pyrimidin-1-yl)-3,4-dihydroxytetrahydrofuran-2-yl)methoxy)-1-methoxypropan-2-yl)phosphonic acid] | ≤ 100 nM
16 | COCCOCC(COCCO)(OC[C@H]1O[C@@H](n2ncc3c(NC4CCCC4)nc(Cl)nc32)[C@H](O)[C@@H]1O)P(=O)(O)O (mixture of isomers) [Example 177, rac-(2-(((2R,3S,4R,5R)-5-(6-chloro-4-(cyclopentylamino)-1H-pyrazolo[3,4-d]pyrimidin-1-yl)-3,4-dihydroxytetrahydrofuran-2-yl)methoxy)-1-(2-hydroxyethoxy)-3-(2-methoxyethoxy)propan-2-yl)phosphonic acid] | ≤ 100 nM
17 | CC(CO)(OC[C@H]1O[C@@H](n2ncc3c(NC4CCCC4)nc(OCCO)nc32)[C@H](O)[C@@H]1O)P(=O)(O)O (stereo partly drawn) [Example 68, (2-(((2R,3S,4R,5R)-5-(4-(cyclopentylamino)-6-(2-hydroxyethoxy)-1H-pyrazolo[3,4-d]pyrimidin-1-yl)-3,4-dihydroxytetrahydrofuran-2-yl)methoxy)-1-hydroxypropan-2-yl)phosphonic acid] | ≤ 100 nM
18 | COCC(OC[C@H]1O[C@@H](n2ncc3c(NC4CCCC4)nc(Cl)nc32)[C@H](O)[C@@H]1O)(C(=O)O)P(=O)(O)O (mixture of isomers) [Example 221, rac-(R)-2-(((2R,3S,4R,5R)-5-(6-chloro-4-(cyclopentylamino)-1H-pyrazolo[3,4-d]pyrimidin-1-yl)-3,4-dihydroxytetrahydrofuran-2-yl)methoxy)-3-methoxy-2-phosphonopropanoic acid] | ≤ 100 nM
19 | CC1(Nc2nc(Cl)nc3c2cnn3[C@@H]2O[C@H](CO[C@](C)(CO)P(=O)(O)O)[C@@H](O)[C@H]2O)CCCC1 [Example 106, ((S)-2-(((2R,3S,4R,5R)-5-(6-chloro-4-((1-methylcyclopentyl)amino)-1H-pyrazolo[3,4-d]pyrimidin-1-yl)-3,4-dihydroxytetrahydrofuran-2-yl)methoxy)-1-hydroxypropan-2-yl)phosphonic acid] | ≤ 100 nM
20 | C[C@H](O)[C@H](OC[C@H]1O[C@@H](n2ncc3c(NC4CCCC4)nc(Cl)nc32)[C@H](O)[C@@H]1O)P(=O)(O)O [Example 12, ((1R,2S)-1-(((2R,3S,4R,5R)-5-(6-chloro-4-(cyclopentylamino)-1H-pyrazolo[3,4-d]pyrimidin-1-yl)-3,4-dihydroxytetrahydrofuran-2-yl)methoxy)-2-hydroxypropyl)phosphonic acid] | ≤ 100 nM
21 | O=P(O)(O)COC[C@H]1O[C@@H](n2nnc3c(NC4CCCC4)cc(Cl)nc32)[C@H](O)[C@@H]1O [Example 17, ((((2R,3S,4R,5R)-5-(5-Chloro-7-(cyclopentylamino)-3H-[1,2,3]triazolo[4,5-b]pyridin-3-yl)-3,4-dihydroxytetrahydrofuran-2-yl)methoxy)methyl)phosphonic acid] | 100 to 1000 nM
